Results from patent US4642341A, “Carbapenem antibiotics” (priority 1985, dated 1987).
Values after ≈ are worked out from the molar mass of the structure shown. Like-named read-outs stand apart in the source and are kept apart here.

Assays:
P. aeruginosa A9843A [1] = assay: animal or person; format: in vivo, mice; details: Pseudomonas aeruginosa, in Mus musculus, im, read-out: PD50 /treatment
Excerpt: The PD50 (dose in mg/kg required to give protection to 50% of the infected mice) is indicated.

P. aeruginosa A21213 = assay: Minimum Inhibitory Concentration, tube dilution; format: cell-based; details: Pseudomonas aeruginosa, A21213, overnight 37° C.; table 6; read-out: MIC
S. marcescens A20019 = assay: Minimum Inhibitory Concentration, tube dilution; format: cell-based; details: Serratia marcescens, A20019, overnight 37° C.; table 6
K. pneumoniae A-9664 = assay: Minimum Inhibitory Concentration, tube dilution; format: cell-based; details: Klebsiella pneumoniae, A9664, overnight 37° C.; table 6
E. coli A20341-1 = assay: Minimum Inhibitory Concentration, tube dilution; format: cell-based; details: Escherichia coli, A203411, overnight 37° C.; table 6
B. fragilis A22862 = assay: Minimum Inhibitory Concentration, tube dilution; format: cell-based; details: Bacteroides fragilis, overnight 37° C., table 6
B. fragilis A22696 = assay: Minimum Inhibitory Concentration, tube dilution; format: cell-based; details: Bacteroides fragilis, overnight 37° C., table 6, read-out: MIC
P. vulgaris A21559 = assay: Minimum Inhibitory Concentration, tube dilution; format: cell-based; details: Proteus vulgaris, A21559, overnight 37° C.; table 6
E. coli A15119 = assay: Minimum Inhibitory Concentration, tube dilution; format: cell-based; details: Escherichia coli, A15119, overnight 37° C.; table 6
E. cloacae A-9656 = assay: Minimum Inhibitory Concentration, tube dilution; format: cell-based; details: Enterobacter cloacae, A9656; overnight 37° C.; table 6
P. mirabilis A-9900 = assay: Minimum Inhibitory Concentration, tube dilution; format: cell-based; details: Proteus mirabilis, A9900, overnight 37° C.; table 6
P. aeruginosa A-9843A = assay: Minimum Inhibitory Concentration, tube dilution; format: cell-based; details: Pseudomonas aeruginosa, A9843A, overnight 37° C.; table 6; read-out: MIC
K. pneumoniae A20468 = assay: Minimum Inhibitory Concentration, tube dilution; format: cell-based; details: Klebsiella pneumoniae, A20468, overnight 37° C., table 6
[2] = system: S. aureus A15097 (Meth-res.); assay: Minimum Inhibitory Concentration, tube dilution; format: cell-based; details: Staphylococcus aureus, table 6
E. cloacae A9659 = assay: Minimum Inhibitory Concentration, tube dilution; format: cell-based; details: Enterobacter cloacae, A9659, overnight 37° C., table 6
S. faecalis A20688 = assay: Minimum Inhibitory Concentration, tube dilution; format: cell-based; details: Enterococcus faecalis, A20688, overnight 37° C., table 6
P. rettgeri A22424 = assay: Minimum Inhibitory Concentration, tube dilution; format: cell-based; details: Providencia rettgeri, overnight 37° C.
S. pyogenes A-9604 = assay: Minimum Inhibitory Concentration, tube dilution; format: cell-based; details: Streptococcus pyogenes, A9604, overnight 37° C.; table 6
S. aureus A-9537 = assay: Minimum Inhibitory Concentration, tube dilution; format: cell-based; details: table 6
S. pneumoniae A-9585 = assay: Minimum Inhibitory Concentration, tube dilution; format: cell-based; details: Streptococcus pneumoniae, A9585, overnight 37° C.; table 6
P. aeruginosa A9843A [3] = assay: animal or person; format: in vivo, mice; details: Pseudomonas aeruginosa, in Mus musculus, im, 3.5 h, read-out: PD50 /treatment
Procedure: (§1) Drugs were administered i.m. 0 to 2 hours post-infection (A9606) or 1 and 3.5 hours post-infection for the others.

[4] = Pharmacokinetic parameters in the mouse after intramuscular dose; format: in vivo, mice; details: im, 20 mg/kg
Excerpt: Also shown is the urinary recovery in the mice.
Compounds were solubilized in 0.1 M phosphate buffer pH 7.

P. mirabilis A9900 = assay: Protective effect, intramuscular treatment of infected mice (table 7); format: in vivo; details: Proteus mirabilis, A9900, im; i.m. 1 and 3.5 hours post-infection; ~1×10^7 organisms i.p.; read-out: PD50 /treatment
Procedure: as §1

S. aureus A9606 = assay: as above; format: in vivo; details: Staphylococcus aureus, A9606, im; i.m. 0 to 2 hours post-infection; ~1×10^9 organisms i.p.; read-out: PD50 /treatment
Procedure: as §1

[5] = Half-life in phosphate buffer pH 7.4; format: physicochemical
Procedure: To a solution of p-nitrobenzyl 3-[2-(1-pyridinium)ethylthio)]-6α[1-(R)-hydroxyethyl]-7-oxo-1-azabicyclo(3.2.0)hept-2-ene-carboxylate diphenylphosphate (0.16 g, 0.22 mmol) in wet tetrahydrofuran (10mL) was added ether (10mL), potassium phosphate monobasic-sodium hydroxide buffer pH 7.4 (16 mL, 0.05 M) and 10% palladium on charcoal (0.16 g). The resulting mixture was hydrogenated under 40 psi for 1 h at 25° C. The two phases were separated and the organic phase was extracted with water (2×3 mL). The aqeuous solutions were combined, washed with ether (2×10 ml) and poured on top of a column (1.5×6.2 cm) pf μ-bondapak C-18 after the traces of organic solvents have been removed under vacuum. Elution of the column with water gave after lyophylization of the appropriate fractions a yellowish powder 0.062 g (84%), ir (KBr) .nu.max : 3700-3000 (OH), 1755 (C--O of β-lactam), 1630 (pyridinium), 1590 cm^-1 (carboxylate), ^1 Hmr (D2 O): 1.22 (3H, d, J=6.4 Hz, CH3 CHOH), 2.92 (d, J=9.1 Hz, H-4), 2.97 (d, J=9.1 Hz, H-4), 3.20 (dd, J=2.5 Hz, J=6.1 Hz, H-6), 3.44 (t, J=6.0 Hz, CH2 S), 3.93 (dd, J=9.1 Hz, J=2.5 Hz, H-5), 4.82 (t, J=6.0 Hz, CH2 N^+), 8.04 (m, Hm of pyridinium), 8.5 (m, Hp of pyridinium), 8.82 (dd, J=3.2. Hz, J=1.1 Hz, Ho of pyridinium), uv (H2 O) λ max : 259 (ε5800), 296 (ε7030) mμ, .tau.1/2 =13.5 h (measured at a concentration of 10^-4 M in phosphate buffer pH 7.4 at 36.8° C.).

M. morganii A15153 = assay: Minimum Inhibitory Concentration, tube dilution; format: cell-based; details: Morganella morganii, A15153, overnight 37° C.; table 6
H. influenzae A-9833 = assay: Minimum Inhibitory Concentration, tube dilution; format: cell-based; details: Haemophilus influenzae, A9833; overnight 37° C.; table 6; read-out: MIC
H. influenzae A21518 = assay: Minimum Inhibitory Concentration, tube dilution; format: cell-based; details: Haemophilus influenzae, overnight 37° C., table 6
[6] = system: S. aureus A-9606 (Pen-res.); assay: Minimum Inhibitory Concentration, tube dilution; format: cell-based; details: Staphylococcus aureus, Pen-res; table 6
[7] = Staphylococcus aureus, A9537, 50% serum, read-out: MIC
[8] = Staphylococcus aureus, A9537, overnight 37° C., read-out: MIC

Compound	ED50 (P. aeruginosa A9843A [1]) [mg/kg]	MIC (P. aeruginosa A21213) [µg/mL]	MIC (S. marcescens A20019) [µg/mL]	MIC (K. pneumoniae A-9664) [µg/mL]	MIC (E. coli A20341-1) [µg/mL]	MIC (B. fragilis A22862) [µg/mL]	MIC (P. vulgaris A21559) [µg/mL]	MIC (E. coli A15119) [µg/mL]	MIC (P. mirabilis A-9900) [µg/mL]	MIC (P. aeruginosa A-9843A) [µg/mL]	MIC (S. faecalis A20688; read-out: MIC) [µg/mL]	MIC (S. pyogenes A-9604) [µg/mL]	MIC (S. pneumoniae A-9585) [µg/mL]	MIC (S. aureus A-9537; [7]) [µg/mL]	MIC (S. aureus A-9537; [8]) [µg/mL]	MIC [6] [µg/mL]	other results
CC(C[n+]1ccccc1)SC1=C(C(=O)[O-])N2C(=O)[C@H]([C@@H](C)O)[C@H]2C1 (single isomer, unassigned) [Ex. 15 (cmp. "A")]	3.1	1 (≈ 2.87 µM)	0.06 (≈ 0.172 µM)	0.06 (≈ 0.172 µM)	0.03 (≈ 0.0861 µM)	0.13 (≈ 0.373 µM)	0.03 (≈ 0.0861 µM)										MIC (B. fragilis A22696): 0.25 µg/mL (≈ 0.718 µM)
C[C@@H](O)[C@H]1C(=O)N2C(C(=O)[O-])=C(SC3CCCCC3[n+]3ccccc3)C[C@H]12 (single isomer, unassigned) [Ex. 16 (cmp. "A"), (5R,6S) 3-[2-[(R or S)-(1-pyridinium)]-1-(R or S)-cyclohexylthio]-6-[1-(R)-hydroxyethyl]-7-oxo-1-azabicyclo(3.2.0)hept-2-ene-2-carboxylate]			0.13 (≈ 0.335 µM)					0.06 (≈ 0.154 µM)									MIC (E. cloacae A-9656): 0.5 µg/mL (≈ 1.29 µM)
C[C@@H](O)[C@H]1C(=O)N2C(C(=O)[O-])=C(SC3CCCCC3[n+]3ccccc3)C[C@H]12 (single isomer, unassigned) [Ex. 16 (cmp. "B"), (5R,6S) 3-[2-[(R or S)-(1-pyridinium)]-1-(R or S)-cyclohexylthio]-6-[1-(R)-hydroxyethyl]-7-oxo-1-azabicyclo(3.2.0)hept-2-ene-2-carboxylate]				0.13 (≈ 0.335 µM)	0.06 (≈ 0.154 µM)				0.13 (≈ 0.335 µM)	32 (≈ 82.4 µM)	8 (≈ 20.6 µM)	0.004 (≈ 0.0103 µM)	0.002 (≈ 0.00515 µM)				MIC (K. pneumoniae A20468; read-out: MIC): 0.5 µg/mL (≈ 1.29 µM); MIC [2]: 0.5 µg/mL (≈ 1.29 µM); MIC (E. cloacae A9659; read-out: MIC): 0.5 µg/mL (≈ 1.29 µM); MIC (P. rettgeri A22424; table 6, read-out: MIC): 4 µg/mL (≈ 10.3 µM); MIC (S. aureus A-9537; overnight 37° C.): 0.013 µg/mL (≈ 0.0335 µM)
Cc1cc[n+](CCSC2=C(C(=O)[O-])N3C(=O)[C@H]([C@@H](C)O)[C@H]3C2)cc1 [Example 8, 3-[2-(1-(4-methylpyridinium))ethylthio]-6α-[1(R)-hydroxyethyl]-7-oxo-1-azabicyclo(3.2.0)hept-2-ene-2-carboxylate]						0.06 (≈ 0.172 µM)	0.06 (≈ 0.172 µM)			8 (≈ 23 µM)		0.03 (≈ 0.0861 µM)	0.03 (≈ 0.0861 µM)	0.06 (≈ 0.172 µM)	0.03 (≈ 0.0861 µM)	0.06 (≈ 0.172 µM)	ED50 (P. aeruginosa A9843A [3]): 0.9 mg/kg; AUC ([4]; blood): 4600 ng·h/mL; Cmax ([4]; blood): 10600 ng/mL; half-life ([4]; blood, read-out: T1/2 (blood)): 8.2 min; dose excreted ([4]; urine, read-out: Urine Recovery): 47 ± 7%; MIC [2]: > 63 µg/mL; ED50 (P. mirabilis A9900): ~38 mg/kg; ED50 (S. aureus A9606): 0.8 mg/kg; half-life at 100 µM ([5]; phosphate buffer, pH 7.4, τ1/2 (half-life)): 12.8 h; MIC (M. morganii A15153): 0.03 µg/mL (≈ 0.0861 µM); MIC (H. influenzae A-9833): > 32 µg/mL; MIC (H. influenzae A21518): > 32 µg/mL
CSc1cc[n+](CCSC2=C(C(=O)[O-])N3C(=O)[C@H]([C@@H](C)O)[C@H]3C2)cc1 [Example 9, (5R) 3-[2-(4-methylthiopyridinio)ethylthio]-(6S)-[(1R)-hydroxyethyl]-7-oxo-1-azabicyclo[3.2.0]hept-2-ene-2-carboxylate]	3.1	2 (≈ 5.26 µM)	0.06 (≈ 0.158 µM)		0.03 (≈ 0.0788 µM)	0.06 (≈ 0.158 µM)	0.016 (≈ 0.0421 µM)	0.03 (≈ 0.0788 µM)	0.06 (≈ 0.158 µM)	4 (≈ 10.5 µM)		0.001 (≈ 0.00263 µM)	0.002 (≈ 0.00526 µM)	0.016 (≈ 0.0421 µM)	0.008 (≈ 0.021 µM)	0.008 (≈ 0.021 µM)	MIC (K. pneumoniae A20468): 0.25 µg/mL (≈ 0.657 µM); MIC (E. cloacae A9659): 0.25 µg/mL (≈ 0.657 µM); MIC (S. faecalis A20688): 0.25 µg/mL (≈ 0.657 µM); MIC (P. rettgeri A22424; table 6): 0.25 µg/mL (≈ 0.657 µM)
COc1ccc[n+](CCSC2=C(C(=O)[O-])N3C(=O)[C@H]([C@@H](C)O)[C@H]3C2)c1 [Example 10, 3-[2-(3-methoxy-1-pyridinium)ethylthio]-6α-[1'-(R)-hydroxyethyl]-7-oxo-1-azabicyclo(3.2.0)-hept-2-ene-2-carboxylate]	1.8	1 (≈ 2.74 µM)		0.06 (≈ 0.165 µM)			0.06 (≈ 0.165 µM)	0.03 (≈ 0.0823 µM)		4 (≈ 11 µM)		0.002 (≈ 0.00549 µM)	0.002 (≈ 0.00549 µM)	0.06 (≈ 0.165 µM)	0.008 (≈ 0.022 µM)	0.016 (≈ 0.0439 µM)	half-life ([5]; 0.1 m phosphate buffer, pH 7.4, T1/2 (half-life)): 20 h
CSc1ccc[n+](CCSC2=C(C(=O)[O-])N3C(=O)[C@H]([C@@H](C)O)[C@H]3C2)c1 [Example 11, (5R,6S)-3-[[2-(3-methylthiopyridinio)ethyl]thio]-6-[1-(R)-hydroxyethyl]-7-oxo-1-azabicyclo[3.2.0]hept-2-ene2-carboxylate]	2.4	1 (≈ 2.63 µM)	0.06 (≈ 0.158 µM)	0.06 (≈ 0.158 µM)	0.03 (≈ 0.0788 µM)	0.06 (≈ 0.158 µM)	0.03 (≈ 0.0788 µM)	0.03 (≈ 0.0788 µM)		4 (≈ 10.5 µM)	0.25 (≈ 0.657 µM)	0.001 (≈ 0.00263 µM)	0.001 (≈ 0.00263 µM)	0.03 (≈ 0.0788 µM)	0.004 (≈ 0.0105 µM)	0.008 (≈ 0.021 µM)	MIC (E. cloacae A9659; read-out: MIC): 0.06 µg/mL (≈ 0.158 µM); half-life ([5]; phosphate buffer, pH 7.4, 36.8° C., read-out: t1/2 (half-life) (converted)): 20 h; MIC (P. rettgeri A22424; table 6, read-out: MIC): 0.25 µg/mL (≈ 0.657 µM)
CSc1n(C)cc[n+]1CCSC1=C(C(=O)[O-])N2C(=O)[C@H]([C@@H](C)O)[C@H]2C1 [Example 13, (5R, 6S)-3-[2-(2-methylthio-3-methylimidazolio)ethyl-thio]-6-[1-(R)-hydroxyethyl]-7-oxo-1-azabicyclo[3.2.0]hept-2-ene-2-carboxylate]		2 (≈ 5.22 µM)	0.06 (≈ 0.156 µM)		0.03 (≈ 0.0782 µM)		0.03 (≈ 0.0782 µM)	0.03 (≈ 0.0782 µM)	0.03 (≈ 0.0782 µM)	32 (≈ 83.4 µM)	0.5 (≈ 1.3 µM)	0.002 (≈ 0.00522 µM)	0.001 (≈ 0.00261 µM)	0.03 (≈ 0.0782 µM)	0.008 (≈ 0.0209 µM)	0.03 (≈ 0.0782 µM)	
